The results in this text go back to patent US20240246941A1, “SUBSTITUTED 4-(3-AMINOPROP-1-YL)AMINOQUINOLINE ANALOGS AS MODULATORS OF MELANOMA-ASSOCIATED ANTIGEN 11 UBIQUITIN LIGASE” (ST. JUDE CHILDREN'S RESEARCH HOSPITAL, INC., priority 2020, published 2024).

MAGE-A11:PCF11, sequence (P43364 218-429): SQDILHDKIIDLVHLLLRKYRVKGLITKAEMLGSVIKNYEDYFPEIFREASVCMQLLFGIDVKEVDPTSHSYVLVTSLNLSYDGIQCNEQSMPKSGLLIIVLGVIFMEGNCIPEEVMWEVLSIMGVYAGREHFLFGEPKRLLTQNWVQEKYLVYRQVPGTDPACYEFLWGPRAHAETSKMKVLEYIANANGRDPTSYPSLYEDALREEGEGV

The target in the first test is MAGE-A11:PCF11 (Homo sapiens (Human), UniProt P43364). In words: TR-FRET single point screening at 15 μM. The format is binding. As to conditions: single point TR-FRET screening at 15 μM against MAGE-A11:PCF11. Also noted: unit not given here. The source says:
TR-FRET Assays and High-throughput Screen. Terbium-anti-GST antibody, 1 M Tris pH 7.5 1 M MgCl2 and 1 M DTT were purchased from Invitrogen (Carlsbad, CA), BSA was purchased from Sigma (St. Louis, MO). Dimethyl sulfoxide (DMSO) was purchased from Fisher Scientific (Pittsburgh, PA). Black 384-well low volume plates and 384-well polypropylene compound plates were purchased from Corning Incorporated (Tewksbury, MA). The St. Jude FDA drug and Bioactive library (11,293 chemicals), Drug-like library (10,073 chemicals) and Lead-like library (10,041 chemicals) were custom assembled and purchased from commercial sources including Sigma, Microsource (Gaylordsville, CT), selleckchem (Houston, TX), ChemDiv (San Diego, CA), ChemBridge (San Diego, CA), Enamine (Monmouth Jct., NJ), and Life Chemicals (Niagara-on-the-Lake, ON, Canada). They were arrayed (10 mM in DMSO) in 384-well polypropylene compound plates with columns 1, 2, 13 and 14 empty which were reserved for controls.
The TR-FRET assay buffer with a formula of 50 mM Tris pH 7.5, 20 mM MgCl2, 0.1 mg/ml BSA and 1 mM DTT was freshly prepared before each experiment. All TR-FRET assays were performed in black 384-well plates with 20 μl/well assay volume in the TR-FRET assay buffer at room temperature (approximately 25° C.). All peptides or compounds were solubilized in DMSO. To test the competitive activity of peptides or compounds against the interaction between GST-MAGEA11 MHD and FAM-PCF11_4 peptide, 10 μl/well peptide or compound at specified concentration was dispensed into a black 384-well low volume plate, followed by 5 μl/well FAM-PCF11_4 (800 nM), 5 μl/well Tb-anti-GST (20 nM) and GST-MAGEA11 MHD (20 nM). The assay components in each well was then mixed by shaking the plate on an IKA MTS 2/4 digital microtiter plate shaker (IKA Works; Wilmington, NC, USA) at 900 RPM for 1 minute. The plate was further centrifuged in an Eppendorf 5810 centrifuge with an A-4-62 swing-bucket rotor (Eppendorf AG, Hamburg, Germany) at 201 g (1000 rpm) for 30 seconds. The plate was then incubated for 90 min with a lid to avoid light exposure to the assay components. After incubation, the fluorescent emission signals at 520 nm and 490 nm channels of individual wells were measured with a PHERAstar FS plate reader (BMG Labtech; Durham, NC, USA) by using a 340 nm excitation filter, 100 μs delay time, and 200 μs integration time. The TR-FRET fluorescence emission ratio (TR-FRET signal) for each well was presented as 10 000×520 nm/490 nm, which was used directly for curve fitting, or further converted to % Inhibition based on the respective positive and negative controls. The graphic software GraphPad Prism 4.81 (GraphPad Software; La Jolla, CA, USA) was used to generate curves and derive IC50 values of tested peptides or compounds, if applicable.
TR-FRET screen for identifying MAGEA11 small molecule inhibitors was performed as follows. The primary one-concentration screening and subsequent 10 or 20-concentration dose response tests were accomplished with an automated High Throughput Screening system (HighRes Biosolutions, Beverly, MA)^30. In the primary screening, 15 μl/well FAM-PCF11_4 (267 nM) was first dispensed with a Multidrop Combi Reagent Dispenser (Thermo Fisher Scientific, Waltham, MA) to black 384-well low volume assay plates. The plates were spun down with a Velocity11 VSpin microplate centrifuge (Agilent Technologies, Santa Clara, CA). 30 nl/well of 10 mM compound/DMSO solutions, or DMSO alone, were transferred from compound plates (the St. Jude FDA drug and bioactive library, Drug-like library and Lead-like library) or a control plate to the assay plates with a Pin Tool (V&P Scientific, San Diego, CA). The compounds were arrayed in columns 3 to 12 and columns 15 to 24 of compound plates. The controls were arrayed in columns 1, 2, 13 and 14 of a compound plate. […]
(In general: TR-FRET usually uses a lanthanide donor and a delayed reading to cut background.)
`CN(C)CCNc1c2c(nc3ccccc13)CCC2` [SJ000013622] came in with a TR-FRET signal of 3.285.

`O=C(O)CCCNC(=O)CNc1c2ccccc2nc2ccccc12` [SJ000016432]: the TR-FRET signal was 9.598.

The compound `CC(Nc1c2ccccc2nc2ccccc12)C(=O)NC(CC(N)=O)C(=O)O` (stereo not drawn) [SJ000016433] came in with a TR-FRET signal of 22.71.

The compound `CCOC(=O)c1cnc2c(ccc3ccccc32)c1NCCN(C)C` [SJ000019487] showed a TR-FRET signal of 6.418.

`CCN(CC)CC(=O)Nc1c2c(nc3ccccc13)CCCC2` [SJ000019523] displayed a TR-FRET signal of 2.741.

Regarding `CCOC(=O)c1cnc2c(C)cc(Cl)cc2c1NCCN(C)C` [SJ000027210], the TR-FRET signal is 3.834.

Compound `CCOC(=O)c1cnc2c(Cl)c(Cl)ccc2c1NCCN(C)C` [SJ000027266] gave a TR-FRET signal of 2.575.

The compound `CCOC(=O)c1cnc2ccc(C)cc2c1NCCN1CCOCC1` [SJ000027268] returned a TR-FRET signal of −0.3915.

`CCOC(=O)c1cnc2ccc(OCC)cc2c1NCCN(C)C` [SJ000027288]: the TR-FRET signal is 10.66.

`CCOC(=O)c1cnc2ccc(OCC)cc2c1NCCN1CCOCC1` [SJ000027289]: the TR-FRET signal is given as 5.291.

Take `CCOC(=O)c1cnc2ccc(Br)cc2c1NCCN1CCOCC1` [SJ000031339]: the TR-FRET signal is listed as −47.24.

With `CCOC(=O)c1ccc2ncc(C(=O)OCC)c(NCCN3CCOCC3)c2c1` [SJ000031347], the TR-FRET signal is reported as 0.6542.

`CCOC(=O)c1cnc2c(C)c(Cl)ccc2c1NCCN(C)C` [SJ000037393] came in with a TR-FRET signal of −1.333.

For `CCOC(=O)c1cnc2c(C)cc(C)cc2c1NCCN(C)C` [SJ000037396], the TR-FRET signal is recorded as 4.92.

As to `CCc1nc2ccccc2c(NC(=O)CNC(C)(C)CC(C)(C)C)c1C` [SJ000049110], the TR-FRET signal is listed as −0.6045.

In the case of `CCN(CC)CC(=O)Nc1c2c(nc3ccccc13)CCC2` [SJ000049655], the TR-FRET signal worked out at 0.6542.

Consider `Cc1ccc2ncc(S(=O)(=O)c3ccccc3)c(N3CCN(C)CC3)c2c1` [SJ000083945], for which the TR-FRET signal is given as −8.419.

Compound `CCc1ccc2ncc(S(=O)(=O)c3ccccc3)c(N3CCN(C)CC3)c2c1` [SJ000083946] returned a TR-FRET signal of −6.249.

For the compound `COc1ccc2ncc(S(=O)(=O)c3ccccc3)c(N3CCN(C)CC3)c2c1` [SJ000083947], the TR-FRET signal is recorded as −2.094.

With `CCOc1ccc2ncc(S(=O)(=O)c3ccccc3)c(N3CCN(C)CC3)c2c1` [SJ000083948], the TR-FRET signal is given as −3.938.

Consider `CN1CCN(c2c(S(=O)(=O)c3ccccc3)cnc3ccc(F)cc23)CC1` [SJ000083949], for which the TR-FRET signal is recorded as −11.5.

`CN1CCN(c2c(S(=O)(=O)c3ccccc3)cnc3ccc(Cl)cc23)CC1` [SJ000083950]: the TR-FRET signal is on record as −5.374.

Compound `COc1cc2ncc(S(=O)(=O)c3ccc(C)cc3)c(N3CCN(C)CC3)c2cc1OC` [SJ000083951] showed a TR-FRET signal of 1.313.

For `COc1ccc2ncc(S(=O)(=O)c3ccc(Cl)cc3)c(N3CCN(C)CC3)c2c1` [SJ000083952], the TR-FRET signal was −3.658.

As for `COc1cc2ncc(S(=O)(=O)c3ccc(Cl)cc3)c(N3CCN(C)CC3)c2cc1OC` [SJ000083953], the TR-FRET signal is on record as 4.674.

In the case of `CCc1ccc2ncc(S(=O)(=O)c3ccc(OC)cc3)c(N3CCN(C)CC3)c2c1` [SJ000083954], the TR-FRET signal was −5.969.

On to `COc1ccc(S(=O)(=O)c2cnc3cc(OC)c(OC)cc3c2N2CCN(C)CC2)cc1` [SJ000083955], for which the TR-FRET signal turned out to be 0.8227.

With `CCN1CCN(c2c(S(=O)(=O)c3ccccc3)cnc3ccc(C)cc23)CC1` [SJ000083956], the TR-FRET signal is −3.448.

As for `CCc1ccc2ncc(S(=O)(=O)c3ccccc3)c(N3CCN(CC)CC3)c2c1` [SJ000083957], the TR-FRET signal was 3.238.

In turn, `CCN1CCN(c2c(S(=O)(=O)c3ccccc3)cnc3ccc(OC)cc23)CC1` [SJ000083958] gave a TR-FRET signal of 0.1242.

Consider `CCOc1ccc2ncc(S(=O)(=O)c3ccccc3)c(N3CCN(CC)CC3)c2c1` [SJ000083959], for which the TR-FRET signal is 4.534.

As to `CCN1CCN(c2c(S(=O)(=O)c3ccccc3)cnc3ccc(Cl)cc23)CC1` [SJ000083960], the TR-FRET signal is on record as 4.43.

Regarding `CCN1CCN(c2c(S(=O)(=O)c3ccc(C)cc3)cnc3ccc(C)cc23)CC1` [SJ000083961], the TR-FRET signal was 0.2213.

In turn, `CCc1ccc2ncc(S(=O)(=O)c3ccc(C)cc3)c(N3CCN(CC)CC3)c2c1` [SJ000083962] returned a TR-FRET signal of 2.377.

Consider `CCN1CCN(c2c(S(=O)(=O)c3ccc(C)cc3)cnc3ccc(OC)cc23)CC1` [SJ000083963], for which the TR-FRET signal is on record as −3.917.

The compound `CCOc1ccc2ncc(S(=O)(=O)c3ccc(C)cc3)c(N3CCN(CC)CC3)c2c1` [SJ000083964] gave a TR-FRET signal of −5.899.

In the case of `CCN1CCN(c2c(S(=O)(=O)c3ccc(C)cc3)cnc3cc(OC)c(OC)cc23)CC1` [SJ000083965], the TR-FRET signal amounted to 7.146.

The compound `CCN1CCN(c2c(S(=O)(=O)c3ccc(C)cc3)cnc3ccc(Cl)cc23)CC1` [SJ000083966] showed a TR-FRET signal of −4.358.

In turn, `CCN1CCN(c2c(S(=O)(=O)c3ccc(Cl)cc3)cnc3ccc(C)cc23)CC1` [SJ000083967] came in with a TR-FRET signal of −3.098.

As to `CCc1ccc2ncc(S(=O)(=O)c3ccc(Cl)cc3)c(N3CCN(CC)CC3)c2c1` [SJ000083968], the TR-FRET signal was −19.13.

In the case of `CCOc1ccc2ncc(S(=O)(=O)c3ccc(Cl)cc3)c(N3CCN(CC)CC3)c2c1` [SJ000083969], the TR-FRET signal is −4.989.

Compound `CCN1CCN(c2c(S(=O)(=O)c3ccc(Cl)cc3)cnc3cc(OC)c(OC)cc23)CC1` [SJ000083970] returned a TR-FRET signal of −6.809.

`CCOc1ccc2ncc(S(=O)(=O)c3ccc(OC)cc3)c(N3CCN(CC)CC3)c2c1` [SJ000083971] showed a TR-FRET signal of −6.389.

The compound `CCN1CCN(c2c(S(=O)(=O)c3ccc(OC)cc3)cnc3cc(OC)c(OC)cc23)CC1` [SJ000083972] gave a TR-FRET signal of 7.411.

`Cc1ccc2ncc(S(=O)(=O)c3ccccc3)c(N3CCN(c4ccccc4)CC3)c2c1` [SJ000083973] showed a TR-FRET signal of −29.7.

Consider `COc1ccc2ncc(S(=O)(=O)c3ccccc3)c(N3CCN(c4ccccc4)CC3)c2c1` [SJ000083974], for which the TR-FRET signal is reported as −133.

`CCOc1ccc2ncc(S(=O)(=O)c3ccccc3)c(N3CCN(c4ccccc4)CC3)c2c1` [SJ000083975] came in with a TR-FRET signal of −12.06.

Regarding `O=S(=O)(c1ccccc1)c1cnc2ccc(F)cc2c1N1CCN(c2ccccc2)CC1` [SJ000083976], the TR-FRET signal is −31.1.

For the compound `O=S(=O)(c1ccccc1)c1cnc2ccc(Cl)cc2c1N1CCN(c2ccccc2)CC1` [SJ000083977], the TR-FRET signal was −15.7.

The test is the same for the next values; noted with them: single point TR-FRET screening of quinoline compounds against MAGE-A11:PCF11; 15 μM.
With `Clc1ccc2c(NCCCNCc3ccco3)ccnc2c1` [SJ000000502], the TR-FRET signal is recorded as 6.349.

Compound `CN(C)CCCNc1c2c(nc3ccccc13)CCC2` [SJ000029259] returned a TR-FRET signal of 24.05.

Regarding `CCOC(=O)c1cnc2c(C)cc(C)cc2c1NCCCN(C)C` [SJ000037397], the TR-FRET signal is 14.93.

On to `CN(C)CCCNc1c2ccccc2nc2ccccc12` [SJ000044378], for which the TR-FRET signal is 16.77.

`NC(=O)CC(Nc1c2ccccc2nc2ccccc12)C(=O)O` (stereo not drawn) [SJ000044383] returned a TR-FRET signal of 20.1.
